Patent publication US20070128217A1 (priority 2003, published 2007)

What was measured:
[1] = system: antibodies in sera from SARS patients (sera 1a, 1b, 2, 6, 37, 62, London, SARS-yellow, SARS-green); assay type: binding, human; parameters: Binding of serum 6 to linear peptides of protein X1 of SARS-CoV Urbani / Binding of serum 37 to linear peptides of protein X1 of SARS-CoV Urbani / Binding of serum 6 to looped/cyclic peptide (PEPSCAN-ELISA) / Binding of serum 37 to looped/cyclic peptide (PEPSCAN-ELISA) / Binding of serum 37 to looped/cyclic peptides of protein X1 of SARS-CoV Urbani / Binding of serum 6 to linear peptides of protein X2 / Binding of serum 37 to linear peptides of protein X2 / Binding of serum 37 to looped/cyclic peptides of protein X2 of SARS-CoV Urbani / Binding of serum 6 to linear peptides of protein M of SARS-CoV Urbani / Binding of serum 37 to linear peptides of protein M of SARS-CoV Urbani / Binding of serum 6 to looped/cyclic peptides of protein M of SARS-CoV Urbani / Binding of serum 37 to looped/cyclic peptides of protein M of SARS-CoV Urbani / Binding of serum 6 to linear peptides of protein X3 of SARS-CoV Urbani / Binding of serum 37 to linear peptides of protein X3 of SARS-CoV Urbani / Binding of serum 37 to looped/cyclic peptides of protein X3 of SARS-CoV Urbani / Binding of serum 6 to linear peptides of protein X4 of SARS-CoV Urbani / Binding of serum 37 to linear peptides of protein X4 of SARS-CoV Urbani / Binding of serum 37 to looped/cyclic peptides of protein X4 of SARS-CoV Urbani / Binding of serum 6 to linear peptides of protein X5 of SARS-CoV Urbani / Binding of serum 37 to linear peptides of protein X5 of SARS-CoV Urbani / Binding of serum 37 to looped/cyclic peptides of protein X5 of SARS-CoV Urbani / Binding of serum 6 to linear peptides of protein N of SARS-CoV Urbani / Binding of serum 37 to linear peptides of protein N of SARS-CoV Urbani / Binding of serum 6 to linear peptide (PEPSCAN-ELISA) / Binding of serum 1a to looped/cyclic peptides of protein N of SARS-CoV Urbani / Binding of serum 1b to looped/cyclic peptides of protein N of SARS-CoV Urbani / Binding of serum 2 to looped/cyclic peptides of protein N of SARS-CoV Urbani / Binding of serum 6 to looped/cyclic peptides of protein N of SARS-CoV Urbani / Binding of serum 37 to looped/cyclic peptides of protein N of SARS-CoV Urbani / Binding of serum 62 to looped/cyclic peptides of protein N of SARS-CoV Urbani / Binding of serum London to looped/cyclic peptides of protein N of SARS-CoV Urbani / Binding of serum SARS-green to looped/cyclic peptides of protein N of SARS-CoV Urbani: unit not given here
[2] = system: control sera (pooled serum of ten healthy LUMC hospital workers; commercial negative donor pooled serum from the Dutch bloodbank); assay type: binding, human; parameters: Binding of Control serum LUMC to linear peptides / Binding of Control serum Blood-bank to linear peptides / Binding of Control serum LUMC to looped peptides / Binding of Control Serum Blood-Bank to Looped peptides / Binding of Control serum LUMC to linear peptides of the protein M of SARS-CoV Urbani / Binding of Control serum Blood-bank to linear peptides of the protein M of SARS-CoV Urbani / Binding of Control serum LUMC to looped peptides of the protein M of SARS-CoV Urbani / Binding of Control Serum Blood-Bank to Looped peptides of the protein M of SARS-CoV Urbani: unit not given here
[3] = system: rabbit serum obtained by immunizing a rabbit with the SARS-CoV strain Frankfurt 1; assay type: binding; parameters: Binding of a rabbit serum to linear peptides / Binding of a rabbit serum to looped peptides / Rabbit serum linear peptides / Rabbit serum looped peptides / Binding of a rabbit serum to linear peptides of protein N of SARS-CoV Urbani (Rabbit serum linear peptides) / Binding of a rabbit serum to looped/cyclic peptides of protein N of SARS-CoV Urbani (Rabbit serum looped peptides): unit not given here

Sequence | Binding of serum 1a to linear peptides of protein X1 of SARS-CoV Urbani [1] | Binding of serum 1a to looped/cyclic peptides of protein X1 of SARS-CoV Urbani [1] | Binding of serum 1b to linear peptides of protein X1 of SARS-CoV Urbani [1] | Binding of serum 1b to looped/cyclic peptides of protein X1 of SARS-CoV Urbani [1] | Binding of serum 2 to linear peptides of protein X1 of SARS-CoV Urbani [1] | Binding of serum 2 to looped/cyclic peptides of protein X1 of SARS-CoV Urbani [1] | Binding of serum 6 to linear peptides of protein X1 of SARS-CoV Urbani [1] | Binding of serum 6 to looped/cyclic peptides of protein X1 of SARS-CoV Urbani [1] | Binding of serum 37 to linear peptides of protein X1 of SARS-CoV Urbani [1] | Binding of serum 37 to looped/cyclic peptides of protein X1 of SARS-CoV Urbani [1] | Binding of serum 62 to linear peptides of protein X1 of SARS-CoV Urbani [1] | Binding of serum London to linear peptides of protein X1 of SARS-CoV Urbani [1] | Binding of serum SARS-green to linear peptides of protein X1 of SARS-CoV Urbani [1] | Binding of serum SARS-yellow to linear peptides of protein X1 of SARS-CoV Urbani [1] | Binding of Control Serum Blood-Bank to Looped peptides [2] | Binding of Control serum Blood-bank to linear peptides [2] | Binding of Control serum LUMC to linear peptides [2] | Binding of Control serum LUMC to looped peptides [2] | Binding of a rabbit serum to linear peptides [3] | Binding of a rabbit serum to looped peptides [3] | other results
DTIVVTEGDGISTPK | 0.5 | 0.3 | 0.4 | 0.2 | 0.3 | 0.1 | 0.4 | 0.2 | 0.4 | 0.3 | 0.3 | 0.2 | 0.2 | 0.1 | 0.4 | 0.4 | 0.3 | 0.3 | 0.1 | 0.5 | Binding of serum 62 to looped/cyclic peptides of protein X1 of SARS-CoV Urbani [1]: 0.3; Binding of serum London to looped/cyclic peptides of protein X1 of SARS-CoV Urbani [1]: 0.2; Binding of serum SARS-green to looped/cyclic peptides of protein X1 of SARS-CoV Urbani [1]: 0.1; Binding of serum SARS-yellow to looped/cyclic peptides of protein X1 of SARS-CoV Urbani [1]: 0.1
DYVVVHGYFTEVYYQ | 0.6 | 0.6 | 0.5 | 0.5 | 0.4 | 0.5 | 0.4 | 0.3 | 0.6 | 0.7 | 0.4 | 0.2 | 0.3 | 0.3 | 0.5 | 0.5 | 0.7 | 0.7 | 0.1 | 0.6 | Binding of serum 62 to looped/cyclic peptides of protein X1 of SARS-CoV Urbani [1]: 0.7; Binding of serum London to looped/cyclic peptides of protein X1 of SARS-CoV Urbani [1]: 0.2; Binding of serum SARS-green to looped/cyclic peptides of protein X1 of SARS-CoV Urbani [1]: 0.3; Binding of serum SARS-yellow to looped/cyclic peptides of protein X1 of SARS-CoV Urbani [1]: 0.5
EAQFLYLYALIYFLQ | 0.7 | – | 0.4 | – | 0.6 | – | 0.4 | – | 0.5 | – | 0.4 | 0.2 | 0.1 | 0.2 | 0.4 | 0.3 | 0.5 | 0.5 | 0.1 | 0.5 | Binding of serum 1a to looped/cyclic peptide (PEPSCAN-ELISA) [1]: 0.5; Binding of serum 1b to looped/cyclic peptide (PEPSCAN-ELISA) [1]: 0.3; Binding of serum 2 to looped/cyclic peptide (PEPSCAN-ELISA) [1]: 0.4; Binding of serum 6 to looped/cyclic peptide (PEPSCAN-ELISA) [1]: 0.2; Binding of serum 37 to looped/cyclic peptide (PEPSCAN-ELISA) [1]: 0.5; Binding of serum 62 to looped/cyclic peptide (PEPSCAN-ELISA) [1]: 0.5; Binding of serum London to looped/cyclic peptide (PEPSCAN-ELISA) [1]: 0.2; Binding of serum SARS-green to looped/cyclic peptide (PEPSCAN-ELISA) [1]: 0.2; Binding of serum SARS-yellow to looped/cyclic peptide (PEPSCAN-ELISA) [1]: 0.3
